Source: US20080248511A1, “METHODS TO QUENCH LIGHT FROM OPTICAL REACTIONS” (priority 2007, published 2008)
Read-outs that look alike come from different tables or passages of the source.

Experiments:
firefly luciferase [1] = molecular target: T1, firefly luciferase (Photinus pyralis, UniProt P08659); assay: biochemical; conditions: for remaining activity at 0.5 %: read-out: Retained Firefly Luciferase Luminescence (%)
Description: (§1) The retained luminescence for each luciferase was calculated by dividing the luminescence in the presence of the detergent by the luminescence in the absence of the test detergent. The selectivity value for each of the test detergents was determined by dividing the retained firefly luciferase luminescence by the retained Renilla luciferase luminescence.
(§2) A set of detergents (Table 2; Sigma-Aldrich) was added at 0.5% (from a 5% or 10% stock solution) to either Luciferase Assay Reagent (Promega) or Renilla Luciferase Assay Reagent (Promega) and allowed to equilibrate at room temperature.
(§3) The firefly luciferase and Renilla luciferase enzymes were diluted as follows. Firefly luciferase was diluted to 14 ng/ml in Phosphate Buffered Saline (PBS) containing 0.1% of the protein carrier Prionex® (Pentapharm). Renilla luciferase was diluted to 10 ng/ml in 1× Renilla Luciferase Lysis Buffer (Promega) containing 0.1% Prionex®. The Renilla Luciferase Lysis Buffer […] detergent micelles when using the Renilla Luciferase Assay Reagent. In the absence of other detergents, this prevents sequestering of coelenterazine which inhibits Renilla luciferase-mediated luminescence.
(§4) The luciferase reactions were initiated by adding 40 μl of either the firefly or Renilla luciferase enzyme solution to 200 μl of the appropriate reagent solution (firefly luciferase enzyme solution+firefly luciferase reagent solution or Renilla luciferase enzyme solution+Renilla luciferase reagent solution, respectively). The reactions were performed in an opaque white, 96-well plate and luminescence was measured for 0.5 seconds per well using a Turner BioSystems Veritas™ Microplate luminometer. The retained firefly luciferase and Renilla luciferase luminescence, as well as the selectivity values for each detergent, were calculated (Table 2).

Renilla luciferase [2] = molecular target: T2, Renilla luciferase (Renilla reniformis, UniProt P27652); assay: biochemical; format: biochemical; conditions: for remaining activity at 0.5 %: read-out: Retained Renilla Luciferase Luminescence (%)
T2 sequence (P27652 1-311): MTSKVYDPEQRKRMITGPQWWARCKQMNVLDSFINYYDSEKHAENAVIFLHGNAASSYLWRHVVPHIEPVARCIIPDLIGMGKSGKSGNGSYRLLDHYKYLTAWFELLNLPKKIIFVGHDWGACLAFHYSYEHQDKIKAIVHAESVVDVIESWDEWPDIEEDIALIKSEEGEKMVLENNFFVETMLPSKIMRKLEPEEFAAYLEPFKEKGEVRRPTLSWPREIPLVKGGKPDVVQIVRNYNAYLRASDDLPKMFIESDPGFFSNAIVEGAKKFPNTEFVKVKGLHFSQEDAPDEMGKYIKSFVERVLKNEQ
Description: as §1, §2, §3, §4

firefly luciferase [3] = molecular target: T1, firefly luciferase; assay: Quaternary ammonium/phosphonium detergent screen, firefly luciferase (Example 5); format: biochemical; conditions: Tergitol NP-9 present
Description: (§5) Each detergent was added at 0.2% to a reagent solution containing 50 mM Tricine pH 8.3, 3.5 mM MgSO4, 1 mM CDTA, 30 mM thiourea and 0.5% Tergitol NP-9. This solution or one not containing a detergent inhibitor was used to resuspend the Bright-Glo™ luciferin substrate (Promega).
(§6) The luciferase reactions were initiated by adding 100 μl of the firefly luciferase or Renilla luciferase enzyme solutions to 100 μl of reagent solution. The reactions were performed as described above. […] The detergent concentrations listed refer to the final concentration in the reaction.

Renilla luciferase [4] = molecular target: T2, Renilla luciferase; assay: Quaternary ammonium/phosphonium detergent screen, Renilla luciferase (Example 5); format: biochemical; conditions: for Retained Renilla Luciferase Luminescence (%) / remaining activity at 0.1 %: Tergitol NP-9 present
Description: as §5, §6

firefly luciferase [5] = molecular target: T1, firefly luciferase; assay: Quaternary ammonium/phosphonium detergent screen, firefly luciferase (Example 5); format: biochemical; conditions: final conc. 0.03% detergent, Tergitol NP-9 present; for remaining activity at 0.03 %: read-out: Retained Firefly Luciferase Luminescence (%)
Renilla luciferase [6] = molecular target: T2, Renilla luciferase; assay: Quaternary ammonium/phosphonium detergent screen, Renilla luciferase (Example 5); format: biochemical; conditions: final conc. 0.03% detergent; for Retained Renilla Luciferase Luminescence (%) / remaining activity at 0.03 %: Tergitol NP-9 present; for remaining activity at 0.03 %: read-out: Retained Renilla Luciferase Luminescence (%)
[7] = retained firefly / retained Renilla, 0.5% detergent
[8] = 0.5% detergent in Luciferase Assay Reagent
[9] = 0.5% detergent in Renilla Luciferase Assay Reagent
[10] = read-out: Retained Firefly Luciferase Luminescence (%), final conc. 0.10% detergent
[11] = read-out: Retained Renilla Luciferase Luminescence (%), final conc. 0.10% detergent
[12] = final conc. 0.10% detergent, read-out: Retained Firefly Luciferase Luminescence (%)
[13] = final conc. 0.10% detergent, read-out: Retained Renilla Luciferase Luminescence (%)

T1 sequence (P08659 whole entry): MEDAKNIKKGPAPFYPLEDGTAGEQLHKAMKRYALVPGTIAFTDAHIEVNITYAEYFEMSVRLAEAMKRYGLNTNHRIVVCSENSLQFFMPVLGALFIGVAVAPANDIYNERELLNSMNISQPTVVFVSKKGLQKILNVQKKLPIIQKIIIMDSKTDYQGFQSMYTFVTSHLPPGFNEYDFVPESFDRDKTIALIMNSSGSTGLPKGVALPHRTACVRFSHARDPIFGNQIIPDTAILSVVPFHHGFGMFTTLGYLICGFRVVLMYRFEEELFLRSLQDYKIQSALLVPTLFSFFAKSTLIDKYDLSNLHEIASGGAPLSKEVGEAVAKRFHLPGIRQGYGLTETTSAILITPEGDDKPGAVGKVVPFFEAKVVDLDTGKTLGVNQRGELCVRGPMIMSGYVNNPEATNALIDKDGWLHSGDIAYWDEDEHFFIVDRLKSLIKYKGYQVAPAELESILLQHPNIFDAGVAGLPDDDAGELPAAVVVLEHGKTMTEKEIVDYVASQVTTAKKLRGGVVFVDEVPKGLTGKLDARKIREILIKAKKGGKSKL

## C[N+](C)(C)CCBr.[Br-] [(2-Bromoethyl)trimethylammonium bromide]
Firefly luciferase [1]
  remaining activity at 0.5 %: 91.4%
Renilla luciferase [2]
  remaining activity at 0.5 %: 78.4%
Renilla luciferase [2]; [7]
  Selectivity Value: 1.2

## C[N+](C)(C)CCCBr.[Br-] [(3-Bromopropyl)trimethylammonium bromide]
Firefly luciferase [1]; [8]
  remaining activity at 0.5 %: 72.2%
Renilla luciferase [2]; [9]
  remaining activity at 0.5 %: 71.6%
Renilla luciferase [2]; [7]
  Selectivity Value: 1.0

## C[N+](C)(C)CCCCCBr.[Br-] [(5-Bromopentyl)trimethylammonium bromide]
Firefly luciferase [1]; [8]
  remaining activity at 0.5 %: 79.1%
Renilla luciferase [2]; [9]
  remaining activity at 0.5 %: 75%
Renilla luciferase [2]; [7]
  Selectivity Value: 1.1

## C[N+](C)(Cc1ccccc1)c1ccccc1.[Cl-] [Benzyldimethylphenylammonium chloride]
Firefly luciferase [3]; final conc. 0.10% detergent
  Retained Firefly Luciferase Luminescence (%): 55%
Renilla luciferase [4]; final conc. 0.10% detergent
  Selectivity Value: 4.6
  Retained Renilla Luciferase Luminescence (%): 12%
Firefly luciferase [5]
  remaining activity at 0.03 %: 82%
Renilla luciferase [6]
  Selectivity Value: 2.2
  Retained Renilla Luciferase Luminescence (%): 38%

## CC[N+](CC)(CC)Cc1ccccc1.[Br-] [Benzyltriethylammonium bromide]
Firefly luciferase [3]; [10]
  remaining activity at 0.1 %: 100%
Renilla luciferase [4]; final conc. 0.10% detergent
  Selectivity Value: 0.9
Renilla luciferase [4]; [11]
  remaining activity at 0.1 %: 87%
Firefly luciferase [5]
  remaining activity at 0.03 %: 97%
Renilla luciferase [6]
  Selectivity Value: 1.0
  remaining activity at 0.03 %: 95%

## CC[P+](CC)(CC)Cc1ccccc1.[Br-] [Benzyltriethylphosphonium bromide]
Firefly luciferase [3]; [12]
  remaining activity at 0.1 %: 102%
Renilla luciferase [4]; final conc. 0.10% detergent
  Selectivity Value: 2.0
Renilla luciferase [4]; [13]
  remaining activity at 0.1 %: 51%
Firefly luciferase [5]
  remaining activity at 0.03 %: 97%
Renilla luciferase [6]
  Selectivity Value: 1.1
  remaining activity at 0.03 %: 88%

## C[N+](C)(C)Cc1ccccc1.[Br-] [Benzyltrimethylammonium bromide]
Firefly luciferase [3]; [10]
  remaining activity at 0.1 %: 100%
Renilla luciferase [4]; final conc. 0.10% detergent
  Selectivity Value: 1.0
Renilla luciferase [4]; [11]
  remaining activity at 0.1 %: 87%
Firefly luciferase [5]
  remaining activity at 0.03 %: 99%
Renilla luciferase [6]
  Selectivity Value: 1.0
  remaining activity at 0.03 %: 95%

## C[N+](C)(C)Cc1ccccc1.[I-] [Bezyltrimethylammonium iodide]
Firefly luciferase [3]; final conc. 0.10% detergent
  Retained Firefly Luciferase Luminescence (%): 62%
Renilla luciferase [4]; final conc. 0.10% detergent
  Selectivity Value: 0.6
  Retained Renilla Luciferase Luminescence (%): 97%
Firefly luciferase [5]
  Retained Firefly Luciferase Luminescence (%): 76%
Renilla luciferase [6]
  Selectivity Value: 0.8
  Retained Renilla Luciferase Luminescence (%): 93%

## C[C@H](CCC(=O)NCCC[N+](C)(C)CC(O)CS(=O)(=O)[O-])[C@H]1CC[C@H]2[C@@H]3[C@H](O)C[C@@H]4C[C@H](O)CC[C@]4(C)[C@H]3C[C@H](O)[C@]12C (stereo partly drawn) [CHAPSO]
Firefly luciferase [1]; [8]
  Retained Firefly Luciferase Luminescence (%): 70.07%
Renilla luciferase [2]; [9]
  Retained Renilla Luciferase Luminescence (%): 52.15%
Renilla luciferase [2]; [7]
  Selectivity Value: 1.3

## C[C@H](CCC(=O)NCCC[N+](C)(C)CCCS(=O)(=O)[O-])[C@H]1CC[C@H]2[C@@H]3[C@H](O)C[C@@H]4C[C@H](O)CC[C@]4(C)[C@H]3C[C@H](O)[C@]12C [CHAPS]
Firefly luciferase [1]; [8]
  Retained Firefly Luciferase Luminescence (%): 73.84%
Renilla luciferase [2]; [9]
  Retained Renilla Luciferase Luminescence (%): 47.29%
Renilla luciferase [2]; [7]
  Selectivity Value: 1.6

## C[P+](C)(Cc1ccc([N+](=O)[O-])cc1)c1ccccc1.[Br-] [Dimethyl(4-nitrobenzyl)phenylphosphonium bromide]
Firefly luciferase [3]; [12]
  remaining activity at 0.1 %: 106%
Renilla luciferase [4]; final conc. 0.10% detergent
  Selectivity Value: 2.2
Renilla luciferase [4]; [13]
  remaining activity at 0.1 %: 49%
Firefly luciferase [5]
  remaining activity at 0.03 %: 99%
Renilla luciferase [6]
  Selectivity Value: 1.3
  remaining activity at 0.03 %: 78%

## CC[N+](C)(C)c1cccc(O)c1 [Edrophonium chloride]
Firefly luciferase [3]; [12]
  remaining activity at 0.1 %: 102%
Renilla luciferase [4]; final conc. 0.10% detergent
  Selectivity Value: 1.1
Renilla luciferase [4]; [13]
  remaining activity at 0.1 %: 89%
Firefly luciferase [5]
  remaining activity at 0.03 %: 98%
Renilla luciferase [6]
  Selectivity Value: 1.0
  remaining activity at 0.03 %: 93%

## C[N+](C)(C)CCCCCC[N+](C)(C)C [Hexamethonium bromide]
Firefly luciferase [1]; [8]
  remaining activity at 0.5 %: 96%
Renilla luciferase [2]; [9]
  remaining activity at 0.5 %: 91%
Renilla luciferase [2]; [7]
  Selectivity Value: 1.1

## C=C(C)[P+](C)(c1ccccc1)c1ccccc1.[I-] [Isopropenylmethyldiphenylphosphonium iodide]
Firefly luciferase [3]; [12]
  remaining activity at 0.1 %: 109%
Renilla luciferase [4]; final conc. 0.10% detergent
  Selectivity Value: 2.1
Renilla luciferase [4]; [13]
  remaining activity at 0.1 %: 51%
Firefly luciferase [5]
  remaining activity at 0.03 %: 95%
Renilla luciferase [6]
  Selectivity Value: 1.2
  remaining activity at 0.03 %: 82%

## C[C@H](CCC(=O)NCCS(=O)(=O)O)[C@H]1CC[C@H]2[C@@H]3CC[C@@H]4C[C@H](O)CC[C@]4(C)[C@H]3CC[C@]12C [Taurolithocholic acid]
Firefly luciferase [1]; [8]
  remaining activity at 0.5 %: 81.3%
Renilla luciferase [2]; [9]
  remaining activity at 0.5 %: 75%
Renilla luciferase [2]; [7]
  Selectivity Value: 1.1

## CCCCCCCC[N+](CCCCCCCC)(CCCCCCCC)CCCCCCCC.[Br-] [Tetraoctylammonium bromide]
Firefly luciferase [1]; [8]
  remaining activity at 0.5 %: 43.7%
Renilla luciferase [2]; [9]
  remaining activity at 0.5 %: 43.1%
Renilla luciferase [2]; [7]
  Selectivity Value: 1.0

## [Br-].c1ccc([P+](c2ccccc2)(c2ccccc2)c2ccccc2)cc1 [Tetraphenylphosphonium bromide]
Firefly luciferase [1]; [8]
  remaining activity at 0.5 %: 90.9%
Renilla luciferase [2]; [9]
  remaining activity at 0.5 %: 24.5%
Renilla luciferase [2]; [7]
  Selectivity Value: 3.7

## CCCCCCCCCC[N+](C)(C)CCCS(=O)(=O)[O-] [Zwittergent 3-10]
Firefly luciferase [1]; [8]
  Retained Firefly Luciferase Luminescence (%): 73.92%
Renilla luciferase [2]; [9]
  Retained Renilla Luciferase Luminescence (%): 33.45%
Renilla luciferase [2]; [7]
  Selectivity Value: 2.2

## (−)-N-dodecyl-N-methyl ephedrium bromide
Firefly luciferase [3]; final conc. 0.10% detergent
  Retained Firefly Luciferase Luminescence (%): 102%
Renilla luciferase [4]; final conc. 0.10% detergent
  Selectivity Value: 102.1
  Retained Renilla Luciferase Luminescence (%): 1%
Firefly luciferase [5]
  Retained Firefly Luciferase Luminescence (%): 106%
Renilla luciferase [6]
  Selectivity Value: 7.1
  Retained Renilla Luciferase Luminescence (%): 15%

## Benzalkonium
Firefly luciferase [1]; [8]
  Retained Firefly Luciferase Luminescence (%): 0.20%
Renilla luciferase [2]; [9]
  Retained Renilla Luciferase Luminescence (%): 0.04%
Renilla luciferase [2]; [7]
  Selectivity Value: 5.0

## Decamthonium bromide
Firefly luciferase [1]; [8]
  Retained Firefly Luciferase Luminescence (%): 85.42%
Renilla luciferase [2]; [9]
  Retained Renilla Luciferase Luminescence (%): 76.68%
Renilla luciferase [2]; [7]
  Selectivity Value: 1.1

## Sodium deoxycholate
Firefly luciferase [1]; [8]
  Retained Firefly Luciferase Luminescence (%): 39.75%
Renilla luciferase [2]; [9]
  Retained Renilla Luciferase Luminescence (%): 60.64%
Renilla luciferase [2]; [7]
  Selectivity Value: 0.7

## Tergitol NP-9
Firefly luciferase [1]; [8]
  Retained Firefly Luciferase Luminescence (%): 79.16%
Renilla luciferase [2]
  Retained Renilla Luciferase Luminescence (%): 27.14%
  Selectivity Value: 2.9

## s-Acetylthiochloline bromide
Firefly luciferase [1]; [8]
  Retained Firefly Luciferase Luminescence (%): 70.97%
Renilla luciferase [2]; [9]
  Retained Renilla Luciferase Luminescence (%): 90.65%
Renilla luciferase [2]; [7]
  Selectivity Value: 0.8
